This is an account of results in ChEMBL document CHEMBL4373684, “Synthesis of new lophine-carbohydrate hybrids as cholinesterase inhibitors: cytotoxicity evaluation and molecular modeling” (Medchemcomm, 2019).

pIC50: −log10 of the molar value. A value given as a limit tells only on which side of the number the result lay.

Data set [1] is described as follows: in vitro. To be noted: PAMPA. (The PAMPA barrier holds no transporters, so it reflects passive diffusion.)
Description: Fraction absorbed of the compound by PAMPA
The target of the next data set is T1, Acetylcholinesterase (Mus musculus, UniProt P21836).
T1 sequence (P21836 whole entry): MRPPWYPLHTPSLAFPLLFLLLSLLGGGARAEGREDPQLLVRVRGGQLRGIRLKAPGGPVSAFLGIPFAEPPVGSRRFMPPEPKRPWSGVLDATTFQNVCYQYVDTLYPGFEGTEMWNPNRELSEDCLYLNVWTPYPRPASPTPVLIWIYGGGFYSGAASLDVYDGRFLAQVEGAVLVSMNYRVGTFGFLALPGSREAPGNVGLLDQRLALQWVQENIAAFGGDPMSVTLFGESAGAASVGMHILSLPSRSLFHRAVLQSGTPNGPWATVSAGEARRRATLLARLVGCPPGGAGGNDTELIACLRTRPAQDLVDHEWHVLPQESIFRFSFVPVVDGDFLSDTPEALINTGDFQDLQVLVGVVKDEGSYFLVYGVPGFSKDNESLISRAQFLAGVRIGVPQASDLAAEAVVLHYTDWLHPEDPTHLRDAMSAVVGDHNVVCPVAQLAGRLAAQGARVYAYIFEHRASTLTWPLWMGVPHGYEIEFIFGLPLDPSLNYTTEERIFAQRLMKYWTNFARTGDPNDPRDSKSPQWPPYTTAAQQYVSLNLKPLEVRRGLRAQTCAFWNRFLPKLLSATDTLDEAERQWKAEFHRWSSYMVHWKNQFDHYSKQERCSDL
The experiment in a line: Inhibition of AChE in Swiss mouse brain using acetylthiocholine iodide as substrate incubated for 10 mins followed by substrate addition and measured after 10 mins. The data set is classed as tissue-based.

Another data set addresses Cholinesterase (Mus musculus, UniProt Q03311).
The next data set has as its system C6. The data set is described as follows: cells. Particulars: Rattus norvegicus, C6, 24 h.
The test system of another data set is Vero. The experiment in a line: cells. Particulars: Chlorocebus sabaeus, 24 h.
The test system of another data set is HepG2. The experiment in a line: cells. To be noted: Homo sapiens, HepG2, 24 h.
The nature of data set [2]: in vitro. Particulars: PAMPA. The source holds these as a separate data set.
Description: Effective permeability of compound incubated for 8 hrs by PAMPA
Data set [3] in a line: Selectivity index, ratio of IC50 for human HepG2 cells to IC50 for inhibition of BuChE in Swiss mouse serum.
A short description of data set [4]: Selectivity index, ratio of IC50 for human HepG2 cells to IC50 for inhibition of AChE in Swiss mouse brain.
Data set [5] can be described thus: Selectivity index, ratio of IC50 for rat C6 cells to IC50 for inhibition of BuChE in Swiss mouse serum.
A short description of data set [6]: Selectivity index, ratio of IC50 for monkey Vero cells to IC50 for inhibition of BuChE in Swiss mouse serum.
Data set [7] in a line: Selectivity index, ratio of IC50 for rat C6 cells to IC50 for inhibition of AChE in Swiss mouse brain.
Data set [8] is described as follows: Selectivity index, ratio of IC50 for monkey Vero cells to IC50 for inhibition of AChE in Swiss mouse brain.

Chain of Cholinesterase (Q03311 whole entry): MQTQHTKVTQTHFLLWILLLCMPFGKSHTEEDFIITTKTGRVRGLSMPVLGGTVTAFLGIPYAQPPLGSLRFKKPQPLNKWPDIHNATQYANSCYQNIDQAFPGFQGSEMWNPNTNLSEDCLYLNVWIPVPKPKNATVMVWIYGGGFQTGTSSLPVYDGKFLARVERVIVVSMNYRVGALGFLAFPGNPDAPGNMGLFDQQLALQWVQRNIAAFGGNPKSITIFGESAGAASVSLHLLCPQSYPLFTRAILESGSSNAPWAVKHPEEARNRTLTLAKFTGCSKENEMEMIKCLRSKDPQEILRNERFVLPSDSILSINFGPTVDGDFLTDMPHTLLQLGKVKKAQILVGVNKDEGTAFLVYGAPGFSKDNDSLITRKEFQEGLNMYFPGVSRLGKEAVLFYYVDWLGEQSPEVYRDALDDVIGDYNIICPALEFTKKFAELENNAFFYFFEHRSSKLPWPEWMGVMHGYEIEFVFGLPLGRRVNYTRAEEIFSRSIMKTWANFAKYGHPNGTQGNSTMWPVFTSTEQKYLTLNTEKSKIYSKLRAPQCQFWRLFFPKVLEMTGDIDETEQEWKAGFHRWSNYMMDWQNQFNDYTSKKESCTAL
Description for C6: Cytotoxicity against rat C6 cells assessed as reduction in cell viability incubated for 24 hrs by MTT assay
Description for HepG2: Cytotoxicity against human HepG2 cells assessed as reduction in cell viability incubated for 24 hrs by MTT assay
Description for Vero: Cytotoxicity against monkey Vero cells assessed as reduction in cell viability incubated for 24 hrs by MTT assay

As for `CCn1cc(C(=O)O)c(=O)c2cc(F)c(N3CCNCC3)cc21` [NORFLOXACIN], the Fa in “in vitro [1]” turned out to be 23.5%.
`CC(C)NCC(O)COc1ccc(CC(N)=O)cc1` (centres undefined) [ATENOLOL] came in with a Fa in “in vitro [1]” of 100%.
With `CC1(C)O[C@H]2O[C@H](CNCCCCn3c(-c4ccccc4)nc(-c4ccccc4)c3-c3ccccc3)[C@H](O)[C@H]2O1`, the pIC50 at Acetylcholinesterase was less than 5.00; against Cholinesterase, 6.52.
Molecule `CNC(=C[N+](=O)[O-])NCCSCc1ccc(CN(C)C)o1` [RANITIDINE] had a Fa in “in vitro [1]” of 87.3%.
Regarding `c1ccc(-c2nc(-c3ccccc3)c(-c3ccccc3)[nH]2)cc1`, the pIC50 at Acetylcholinesterase and at Cholinesterase was less than 5.00 throughout.
Consider `CC1(C)O[C@H]2O[C@H](CNCCCCCn3c(-c4ccccc4)nc(-c4ccccc4)c3-c3ccccc3)[C@H](O)[C@H]2O1`, for which the negative-log IC50 (pIC50) with C6 was less than 3.60; in the data set on Vero, 3.94; against Acetylcholinesterase, less than 5.00; at Cholinesterase, 6.55; with HepG2, 3.93.
`O=c1ccc2ccccc2o1` [COUMARIN]: the Fa in the data set “in vitro [1]” was found to be 87.9%. Also, the apparent permeability (Papp) at 8 h in the data set “in vitro [2]” stood at 26.2 ×10⁻⁶ cm/s.
Take `CC1(C)O[C@H]2O[C@H](CNCCCCCCCn3c(-c4ccccc4)nc(-c4ccccc4)c3-c3ccccc3)[C@H](O)[C@H]2O1`: the figures for the negative-log IC50 (pIC50) against Acetylcholinesterase and against Cholinesterase were less than 5.00 and 6.40, respectively.
Take `CC1(C)O[C@H]2[C@@H](O1)[C@@H](CNCCCCCCn1c(-c3ccccc3)nc(-c3ccccc3)c1-c1ccccc1)O[C@@H]1OC(C)(C)O[C@@H]12`: the negative logarithm of the IC50 (pIC50) in the data set with C6 was less than 3.60; in the data set on Vero, less than 3.60; against Acetylcholinesterase, less than 5.00; against Cholinesterase, 6.77; with HepG2, less than 3.60. This molecule showed a Fa in the data set “in vitro [1]” of 5.9%. In addition, in the data set “in vitro [2]”, the Papp at 8 h was determined as 0.54 ×10⁻⁶ cm/s.
Consider `CO[C@@H]1O[C@H](CNCCCCCCn2c(-c3ccccc3)nc(-c3ccccc3)c2-c2ccccc2)[C@H]2OC(C)(C)O[C@@H]12`, for which the negative-log IC50 (pIC50) was less than 5.00 at Acetylcholinesterase and 6.40 against Cholinesterase.
On to `CC1(C)O[C@H]2O[C@H](CNCCCCCCn3c(-c4ccccc4)nc(-c4ccccc4)c3-c3ccccc3)[C@H](O)[C@H]2O1`, for which the pIC50 was less than 5.00 against Acetylcholinesterase and 6.15 against Cholinesterase.
Regarding `CO/N=C(\C(=O)N[C@@H]1C(=O)N2C(C(=O)O)=C(CSc3nc(=O)c(=O)[nH]n3C)CS[C@H]12)c1csc(N)n1` [CEFTRIAXONE], the Fa in the data set “in vitro [1]” worked out at 99.2%. This molecule yielded a Papp at 8 h in “in vitro [2]” of 0.38 ×10⁻⁶ cm/s.
In the case of `CC1(C)O[C@H]2O[C@H](CNCCCCCCCCn3c(-c4ccccc4)nc(-c4ccccc4)c3-c3ccccc3)[C@H](O)[C@H]2O1`, the negative logarithm of the IC50 (pIC50) against Acetylcholinesterase was less than 5.00; against Cholinesterase it was 5.89.
Consider `CO[C@@H]1O[C@H](CNCCCCCCCn2c(-c3ccccc3)nc(-c3ccccc3)c2-c2ccccc2)[C@H]2OC(C)(C)O[C@@H]12`, for which the negative-log IC50 (pIC50) was less than 3.60 in the data set with C6; less than 3.60 in the data set on Vero; 5.56 at Acetylcholinesterase; 6.30 on Cholinesterase; less than 3.60 in the data set with HepG2. Further, the “Ratio IC50” value in data set [3] is given as 500; in data set [4], 90; in data set [5], 500; in [6], 500; in data set [7], 90; in [8], 90. Further, the Fa in “in vitro [1]” was found to be 20.4%. Besides, the Papp at 8 h in “in vitro [2]” came to 2.28 ×10⁻⁶ cm/s.
For `CC1(C)O[C@H]2[C@@H](O1)[C@@H](CNCCCCCCCn1c(-c3ccccc3)nc(-c3ccccc3)c1-c1ccccc1)O[C@@H]1OC(C)(C)O[C@@H]12`, the “Ratio IC50” value in [3], in [5] and in data set [6] was 1400 in each case. Moreover, the pIC50 at Acetylcholinesterase was less than 5.00; on Cholinesterase, 6.21.

In general, pIC50 refers to the IC50 on a negative log10 scale, so that one unit is a factor of ten. What is called Papp is a coefficient for how fast a substance crosses the barrier.
